Test results reported in ChEMBL document CHEMBL1201862, “PubChem BioAssay data set” (2004).
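Assay format: 96-well plates, 48-hour exposure. Here, GI50 denotes the concentration required for 50% inhibition of growth.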 Calls of active or inactive are those of the source. Rule as the data show it: active = GI50 up to about 1.1 µM and inactive = higher.

Experiments:
Test in all cases: NCI-60 cell line screen, 48 h
[1] = system: ACHN
[2] = system: SW-620
[3] = system: SK-MEL-5
[4] = system: HOP-92
[5] = system: NCI-H226
[6] = system: OVCAR-4
[7] = system: U-251
[8] = system: TK-10
[9] = system: HCC 2998
[10] = system: HL-60
[11] = system: NCI-H460
[12] = system: T47D
[13] = system: SNB-75
[14] = system: MDA-MB-231
[15] = system: SNB-19
[16] = system: EKVX
[17] = system: HOP-62
[18] = system: BT-549
[19] = system: HCT-15
[20] = system: KM12
[21] = system: NCI/ADR-RES
[22] = system: SK-MEL-28
[23] = system: A549
[24] = system: RXF 393
[25] = system: MCF7
[26] = system: UACC-257
[27] = system: CAKI-1
[28] = system: MDA-MB-435
[29] = system: OVCAR-5
[30] = system: SF-539
[31] = system: SR
[32] = system: RPMI-8226
[33] = system: UACC-62
[34] = system: IGROV-1
[35] = system: Malme-3M
[36] = system: HCT-116
[37] = system: M14
[38] = system: MOLT-4
[39] = system: LOX IMVI
[40] = system: SK-MEL-2
[41] = system: UO-31
[42] = system: NCI-H23
[43] = system: OVCAR-8
[44] = system: COLO 205
[45] = system: DU-145
[46] = system: HT-29
[47] = system: PC-3
[48] = system: K562
[49] = system: SF-268
[50] = system: 786-0
[51] = system: SN12C
[52] = system: NCI-H522
[53] = system: Hs-578T
[54] = system: SK-OV-3
[55] = system: OVCAR-3
[56] = system: CCRF-CEM
[57] = system: SF-295
[58] = system: MDA-N

Compound: CC1(C)COC(c2cccc(C3=NC(C)(C)CO3)c2Br)=N1
- GI50 [1]: > 100 µM (inactive)
- GI50 [2]: > 100 µM (inactive)
- GI50 [3]: > 100 µM (inactive)
- GI50 [4]: > 100 µM (inactive)
- GI50 [5]: > 100 µM (inactive)
- GI50 [6]: > 100 µM (inactive)
- GI50 [7]: > 100 µM (inactive)
- GI50 [8]: > 100 µM (inactive)
- GI50 [9]: > 100 µM (inactive)
- GI50 [10]: > 100 µM (inactive)
- GI50 [11]: > 100 µM (inactive)
- GI50 [12]: > 100 µM (inactive)
- GI50 [13]: 3.05 µM (inactive)
- GI50 [14]: > 100 µM (inactive)
- GI50 [15]: > 100 µM (inactive)
- GI50 [16]: > 100 µM (inactive)
- GI50 [17]: > 100 µM (inactive)
- GI50 [18]: > 100 µM (inactive)
- GI50 [19]: > 100 µM
- GI50 [20]: > 100 µM (inactive)
- GI50 [21]: > 100 µM (inactive)
- GI50 [22]: > 100 µM (inactive)
- GI50 [23]: > 100 µM (inactive)
- GI50 [24]: > 100 µM (inactive)
- GI50 [25]: > 100 µM (inactive)
- GI50 [26]: > 100 µM (inactive)
- GI50 [27]: > 100 µM (inactive)
- GI50 [28]: > 100 µM (inactive)
- GI50 [29]: > 100 µM (inactive)
- GI50 [30]: > 100 µM (inactive)
- GI50 [31]: > 100 µM (inactive)
- GI50 [32]: > 100 µM (inactive)
- GI50 [33]: 7.48 µM (inactive)
- GI50 [34]: > 100 µM (inactive)
- GI50 [35]: > 100 µM (inactive)
- GI50 [36]: > 100 µM (inactive)
- GI50 [37]: > 100 µM (inactive)
- GI50 [38]: > 100 µM (inactive)
- GI50 [39]: > 100 µM (inactive)
- GI50 [40]: > 100 µM (inactive)
- GI50 [41]: > 100 µM (inactive)
- GI50 [42]: > 100 µM (inactive)
- GI50 [43]: > 100 µM (inactive)
- GI50 [44]: > 100 µM (inactive)
- GI50 [45]: > 100 µM (inactive)
- GI50 [46]: > 100 µM (inactive)
- GI50 [47]: > 100 µM (inactive)
- GI50 [48]: > 100 µM (inactive)
- GI50 [49]: > 100 µM (inactive)
- GI50 [50]: > 100 µM (inactive)

Compound: O=C1O/C(=C(/Br)c2ccc(Cl)c(Cl)c2)c2ccccc21
- GI50 [1]: > 10 µM (inactive)
- GI50 [2]: > 10 µM (inactive)
- GI50 [3]: > 10 µM (inactive)
- GI50 [4]: > 10 µM (inactive)
- GI50 [5]: > 10 µM (inactive)
- GI50 [51]: > 10 µM (inactive)
- GI50 [6]: > 10 µM (inactive)
- GI50 [7]: > 10 µM (inactive)
- GI50 [8]: > 10 µM (inactive)
- GI50 [52]: > 10 µM (inactive)
- GI50 [9]: > 10 µM (inactive)
- GI50 [10]: > 10 µM (inactive)
- GI50 [11]: > 10 µM (inactive)
- GI50 [12]: > 10 µM (inactive)
- GI50 [13]: > 10 µM (inactive)
- GI50 [14]: > 10 µM (inactive)
- GI50 [15]: > 10 µM (inactive)
- GI50 [53]: > 10 µM (inactive)
- GI50 [16]: > 10 µM (inactive)
- GI50 [17]: > 10 µM (inactive)
- GI50 [54]: > 10 µM (inactive)
- GI50 [19]: > 10 µM
- GI50 [20]: > 10 µM (inactive)
- GI50 [21]: > 10 µM (inactive)
- GI50 [22]: > 10 µM (inactive)
- GI50 [23]: > 10 µM (inactive)
- GI50 [24]: > 10 µM (inactive)
- GI50 [25]: 7.67 µM (inactive)
- GI50 [26]: > 10 µM (inactive)
- GI50 [27]: > 10 µM (inactive)
- GI50 [55]: > 10 µM (inactive)
- GI50 [28]: > 10 µM (inactive)
- GI50 [29]: > 10 µM (inactive)
- GI50 [30]: > 10 µM (inactive)
- GI50 [31]: > 10 µM (inactive)
- GI50 [32]: > 10 µM (inactive)
- GI50 [33]: > 10 µM (inactive)
- GI50 [34]: > 10 µM (inactive)
- GI50 [36]: > 10 µM (inactive)
- GI50 [37]: > 10 µM (inactive)
- GI50 [38]: > 10 µM (inactive)
- GI50 [56]: > 10 µM (inactive)
- GI50 [39]: > 10 µM (inactive)
- GI50 [40]: > 10 µM (inactive)
- GI50 [41]: > 10 µM (inactive)
- GI50 [42]: > 10 µM (inactive)
- GI50 [57]: > 10 µM (inactive)
- GI50 [43]: > 10 µM (inactive)
- GI50 [44]: > 10 µM (inactive)
- GI50 [45]: > 10 µM (inactive)
- GI50 [46]: > 10 µM (inactive)
- GI50 [47]: > 10 µM (inactive)
- GI50 [48]: > 10 µM (inactive)
- GI50 [49]: > 10 µM (inactive)
- GI50 [50]: > 10 µM (inactive)
- GI50 [58]: > 10 µM (inactive)

Compound: CC(C)(C)[Si](C)(C)Oc1cc(CO)cc2c1cc(=N)o[n+]2[O-]
- GI50 [2]: > 10 µM (inactive)
- GI50 [3]: > 10 µM (inactive)
- GI50 [51]: 5.56 µM (inactive)
- GI50 [8]: > 10 µM (inactive)
- GI50 [9]: 9.35 µM (inactive)
- GI50 [10]: 3.61 µM (inactive)
- GI50 [12]: 4.8 µM (inactive)
- GI50 [13]: > 10 µM (inactive)
- GI50 [14]: > 10 µM (inactive)
- GI50 [16]: > 10 µM (inactive)
- GI50 [17]: > 10 µM (inactive)
- GI50 [54]: > 10 µM (inactive)
- GI50 [19]: 5.61 µM
- GI50 [20]: 4.1 µM (inactive)
- GI50 [22]: > 10 µM (inactive)
- GI50 [23]: > 10 µM (inactive)
- GI50 [24]: 3.96 µM (inactive)
- GI50 [25]: 2.72 µM (inactive)
- GI50 [26]: > 10 µM (inactive)
- GI50 [27]: > 10 µM (inactive)
- GI50 [31]: 2.48 µM (inactive)
- GI50 [32]: 6.22 µM (inactive)
- GI50 [33]: > 10 µM (inactive)
- GI50 [34]: 8.15 µM (inactive)
- GI50 [35]: > 10 µM (inactive)
- GI50 [37]: > 10 µM (inactive)
- GI50 [38]: 2.61 µM (inactive)
- GI50 [56]: 2.84 µM (inactive)
- GI50 [42]: 6.97 µM (inactive)
- GI50 [57]: > 10 µM (inactive)
- GI50 [43]: > 10 µM (inactive)
- GI50 [44]: > 10 µM (inactive)
- GI50 [45]: > 10 µM (inactive)
- GI50 [46]: 4.18 µM (inactive)
- GI50 [47]: 4.01 µM (inactive)
- GI50 [48]: 4.53 µM (inactive)
- GI50 [49]: 6.03 µM (inactive)
- GI50 [50]: > 10 µM (inactive)
- GI50 [58]: > 10 µM (inactive)
